# Read-outs that look alike come from different tables or passages of the source. Marks after values point to notes of the source that are not given here.
# Key:
# [1] = test system: adjuvant-induced arthritis rat models; assay: Adjuvant-induced osteoarthritis pain, foot swelling degree; assay type: in vivo, rats; details: X ± S, n = 10, 10 mg/Kg
# Description: Typical model for studying inflammatory pain medically was used to evaluate the therapeutic effects of compounds on inflammatory pain. 0.1 mL Freund's complete adjuvant was intradermally injected to toe of the left hind foot of the rats in each group to obtain adjuvant-induced arthritis rat models. Foot volume method was used to measure primary and secondary foot swelling degree (swelling degree=volume after inflammation−volume before inflammation), and polyarticular arthritis were scored (5 scoring grades: 0 represents no red swelling; 4 represents red swelling at all the paws including anklebone. The scores are accumulated according to the lesion degree of the rest three limbs not injected with adjuvant, and the highest score is 12). Before inflammation and at 6 h, 12 h, 18 h and 24 h after inflammation, Paw Volume Meter was used to measure the foot volume at the inflammatory side, and the swelling degree was calculated. The model can represent inflammatory pain including, but not only limited to: osteoarthritis pain and fibromyalgia syndrome, inflammatory pain of rheumatic and rheumatoid arthritis, inflammatory pain of endometriosis, inflammatory toothache, ankylosing spondylitis pain, and gouty arthritis pain.
# SNI neuropathic pain = assay: Neuropathic pain mouse model induced by spared nerve injury (SNI); assay type: in vivo, C57BL/6 mice; details: SNI mice, 10 mg/kg i.p. (gabapentin 100 mg/kg), 4 h after administration
# Description: In the Experimental example, compounds to be evaluated or compounds to be tested or test compounds used are the Compounds 1-46 prepared in the Examples according to the invention. In the Experimental example, all the agents for injection, including compounds to be evaluated or compounds to be tested or test compounds, and positive control drug, were dissolved in a mixed solvent of PEG400:Tween 80:normal saline (at a volume ratio of 5:5:90), at a concentration of 5 mg/mL.
# Neuropathic pain mouse model induced by spared nerve injury (SNI) is a common animal model for studying neuropathic pain medically. The invention uses the model to evaluate the therapeutic effects of the compounds on neuropathic pain, wherein the model can represent peripheral neuropathic pain including, but not limited to post-herpetic neuralgia, pain caused by diabetic perineuropathy, neurothlipsis and exudation caused by tumor, lumbar surgery failure syndrome, neuropathic pain caused by lumbar disc protrusion, postpartum neuralgia, trigeminal neuralgia, chemotherapy-induced multiple neuropathic pain, post-radiotherapy plexopathy, and radicular neuralgia.
# C57BL/6 mice (purchased from Shanghai SLAC Laboratory Animal Co., Ltd) were anesthetized by intraperitoneal injection with pentobarbital sodium (40 mg/kg), and skin from knee joint to gluteal region was subjected to skin preparation and disinfection. After the mice were fixed, the knee joint part was cut about 1 cm longitudinally with bistoury, and muscle tissues were separated by blunt dissection to expose sciatic nerve. The tibial and common peroneal nerve branches of sciatic nerve stem were cut off carefully, and the cut was then stitched up. The mice was placed in a clean observation cage. In the sham-operation group, only sciatic nerve was exposed without cutting the tibial and common peroneal nerve branches. From the day before the experiment to 24 h after the operation, the plantar edges of the mice were stimulated everyday by […] (Ugo Basile Company (Italy), Product ID: 37450), and data was collected automatically to obtain the threshold value of mice to mechanical stimulation. […] The positive control drug gabapentin was administered at a dose of 100 mg/kg. All the agents to be injected were dissolved in a mixed solvent of PEG400:Tween 80:normal saline (at a volume ratio of 5:5:90), at a concentration of 5 mg/mL. By comparing the threshold values (the acting force of when the mouse retracting the paw) at different administration time in different administration groups, the compound was evaluated for its analgesic effect on neuropathic pain.
# zebrafish embryos [2] = assay type: in vivo; details: for Death number (72 h) / Hatching number (72 h) / Unhatching number (72 h): n = 30
# Description: Fertilized eggs (donated by Zebrafish Research Group, School of Life Sciences, Xiamen University) were incubated in freshly prepared zebrafish embryo culture medium, which was replaced by fresh culture medium every day, and cultured in 28.5° C. incubator. Pure water was placed in the incubator to ensure a certain humidity in the culture environment. The formulation for zebrafish embryo culture medium was following: 5 mM NaCl, 0.17 mM KCl, 0.33 mM CaCl2, 0.33 mM MgSO4, 10-5% methylene blue. The culture medium was prepared with pure water. For example, NaCl: 292.2 mg, KCl: 12.68 mg, CaCl2: 36.63 mg, MgSO4: 39.72 mg, and methylene blue: 0.1 μL were needed for the preparation of 1 L culture medium.
# 7 Groups were set for each test compound, including 5 experimental groups relating to the test compound at different concentrations (solutions containing the test compound at different concentrations were prepared by using zebrafish embryo culture medium, wherein the concentrations were 10 mg/L, 3 mg/L, 1 mg/L, 0.3 mg/L, 0.1 mg/L), 1 solvent control group (DMSO) and 1 blank control group. The positive control drug was OTC analgesic ibuprofen at concentrations as described above. A 96-well cell culture plate was used to perform the experiment, three wells in parallel were used for each experimental group, and 10 fish eggs were contained in each well.
# Culture medium containing a test compound was prepared, and the culture medium was added to a 96-well plate in advance, and each fertilized egg (by reference to the experimental method in OECD No. 212 document, fertilized eggs, which developed normally within 2 h after fertilization, were selected and subjected to exposure. Transparent fish eggs visible to naked eye were normally fertilized, while white fish eggs were dead and discarded. After the selection, the normally fertilized eggs had begun to divide as observed under microscope) was then independently placed in a different well, and cultured in the culture medium containing a test compound at a different concentration. Embryo development status at different stages was observed and photographed with invert microscope, including: […]
# II. Hatching number and death number were counted at 72 h after fertilization, and hatching rate and mortality were calculated; […]
# (§1) V. Heartbeat of young fishes (times/min) was recorded at 72 h and 96 h after fertilization (Recording method: heartbeat of young fishes could be clearly observed under microscope, and the number of heartbeats was recorded for 30 s).
# zebrafish embryos [3] = assay type: in vivo; details: for Death number (72 h): n = 30; for Body length (72 h) / Hatching number (72 h) / Heartbeat (72 h) / Unhatching number (72 h) / hatching rate: zebrafish, in vivo
# Description: By the same method described above, zebrafish fertilized eggs were cultured. 7 Groups were set for each test compound, including 5 experimental groups relating to the test compound at different concentrations (solutions containing the test compound at different concentrations were prepared by using zebrafish embryo culture medium, wherein the concentrations were 100 mg/L, 10 mg/L, 1 mg/L, 0.1 mg/L, 0.01 mg/L), 1 solvent control group (DMSO) and 1 blank control group. The fertilized eggs were placed and cultured in a 28.5° C. incubator, a certain humidity was ensured in the culture environment. Culture medium containing a test compound was prepared, and the culture medium was added to a 96-well plate in advance, and each fertilized egg (by reference to the experimental method in OECD No. 212 document, fertilized eggs, which developed normally within 24 h after fertilization, were selected and subjected to exposure. Transparent fish eggs visible to naked eye were normally fertilized, while white fish eggs were dead and discarded. After the selection, the normally fertilized eggs had begun to divide as observed under microscope) was then independently placed in a different well, and cultured in the culture medium containing a test compound at a different concentration. Embryo development status at different stages were observed and photographed with invert microscope, including:
# I. Morphological observation: the developmental states of fertilized eggs (yolk being coagulated or not, eye spot, pericardial sac being edematous or not, bloodstream being existing or not, tail development status, and the like) were observed and photographed at 48 h, 72 h, and 96 h;
# II. Hatching number and death number were counted at 72 h after fertilization, and hatching rate and mortality were calculated;
# III. Body length of the hatched young fishes at 72 h was measured (measured after photographing with invert microscope); […]
# as §1
smiles,measurement,setting,value
"O=C(Cc1cccc(-c2ccccc2)c1)N1CCOC1=O [Compound 14, 3-Biphenylacetyl Oxazolidinone]",Foot swelling degree after inflammation,[1]; 6 h,0.75 ± 0.11^c mL
same,Foot swelling degree after inflammation,[1]; 12 h,1.06 ± 0.19^c mL
same,Foot swelling degree after inflammation,[1]; 18 h,1.43 ± 0.25^b mL
same,Foot swelling degree after inflammation,[1]; 24 h,1.36 ± 0.18^b mL
"NCC1(CC(=O)O)CCCCC1 [gabapentin, reference compound]",effect of inhibiting central neuropathic pain,SNI neuropathic pain,disappeared gradually
"CC(C)Cc1ccc(C(C)C(=O)O)cc1 (centres unmarked) [ibuprofen, reference compound]",Body length (72 h),zebrafish embryos [2]; 0.1 mg/L,3.94 ± 0.14 mm
same,Heartbeat (72 h),zebrafish embryos [2]; 0.1 mg/L,125 ± 2.40 per min
same,Death number (72 h),zebrafish embryos [2]; 0.1 mg/L,8
same,Hatching number (72 h),zebrafish embryos [2]; 0.1 mg/L,22
same,Unhatching number (72 h),zebrafish embryos [2]; 0.1 mg/L,0
same,Body length (72 h),zebrafish embryos [2]; 0.3 mg/L,3.95 ± 0.09 mm
same,Heartbeat (72 h),zebrafish embryos [2]; 0.3 mg/L,125 ± 2.48 per min
same,Death number (72 h),zebrafish embryos [2]; 0.3 mg/L,8
same,Hatching number (72 h),zebrafish embryos [2]; 0.3 mg/L,20
same,Unhatching number (72 h),zebrafish embryos [2]; 0.3 mg/L,2
same,Body length (72 h),zebrafish embryos [2]; 1 mg/L,3.77 ± 0.18 mm
same,Heartbeat (72 h),zebrafish embryos [2]; 1 mg/L,126 ± 2.56 per min
same,hatching rate,"zebrafish embryos [2]; 1 mg/L, 72 h",56.67%
same,Death number (72 h),zebrafish embryos [2]; 1 mg/L,13
same,Hatching number (72 h),zebrafish embryos [2]; 1 mg/L,17
same,Unhatching number (72 h),zebrafish embryos [2]; 1 mg/L,0
same,Death number (72 h),zebrafish embryos [2]; 3 mg/L,28
same,Hatching number (72 h),zebrafish embryos [2]; 3 mg/L,0
same,Unhatching number (72 h),zebrafish embryos [2]; 3 mg/L,2
same,Death number (72 h),zebrafish embryos [2]; 10 mg/L,30
same,Hatching number (72 h),zebrafish embryos [2]; 10 mg/L,0
same,Unhatching number (72 h),zebrafish embryos [2]; 10 mg/L,0
same,Death number (72 h),zebrafish embryos [3]; 0.01 mg/L,0
same,Death number (72 h),zebrafish embryos [3]; 0.1 mg/L,0
same,Death number (72 h),zebrafish embryos [3]; 1 mg/L,2
same,mortality,"zebrafish embryos [3]; 10 mg/L, 72 h",100%
same,Death number (72 h),zebrafish embryos [3]; 10 mg/L,30
same,observation of zebrafish embryo development,"zebrafish embryos [3]; 100 mg/L, 48 h",all the zebrafish embryos died
same,Death number (72 h),zebrafish embryos [3]; 100 mg/L,30
same,Body length (72 h),"zebrafish embryos [3]; 72 h, 0.01 mg/L",3.97 ± 0.06 mm
same,Hatching number (72 h),"zebrafish embryos [3]; 72 h, 0.01 mg/L",25
same,Heartbeat (72 h),"zebrafish embryos [3]; 72 h, 0.01 mg/L",125 ± 2.16 per min
same,Unhatching number (72 h),"zebrafish embryos [3]; 72 h, 0.01 mg/L",5
same,Body length (72 h),"zebrafish embryos [3]; 72 h, 0.1 mg/L",3.88 ± 0.15 mm
same,Hatching number (72 h),"zebrafish embryos [3]; 72 h, 0.1 mg/L",22
same,Heartbeat (72 h),"zebrafish embryos [3]; 72 h, 0.1 mg/L",124 ± 2.25 per min
same,Unhatching number (72 h),"zebrafish embryos [3]; 72 h, 0.1 mg/L",8
same,Body length (72 h),"zebrafish embryos [3]; 72 h, 1 mg/L",3.97 ± 0.08 mm
same,Hatching number (72 h),"zebrafish embryos [3]; 72 h, 1 mg/L",17
same,Heartbeat (72 h),"zebrafish embryos [3]; 72 h, 1 mg/L",124 ± 1.67 per min
same,Unhatching number (72 h),"zebrafish embryos [3]; 72 h, 1 mg/L",11
same,hatching rate,"zebrafish embryos [3]; 72 h, 1 mg/L",56.7%
same,Hatching number (72 h),"zebrafish embryos [3]; 72 h, 10 mg/L",0
same,Unhatching number (72 h),"zebrafish embryos [3]; 72 h, 10 mg/L",0
same,hatching rate,"zebrafish embryos [3]; 72 h, 10 mg/L",0%
same,Hatching number (72 h),"zebrafish embryos [3]; 72 h, 100 mg/L",0
same,Unhatching number (72 h),"zebrafish embryos [3]; 72 h, 100 mg/L",0
"COc1ccc2c(c1)c(CC(=O)O)c(C)n2C(=O)c1ccc(Cl)cc1 [indometacin, reference compound]",Foot swelling degree after inflammation,[1]; 6 h,0.57 ± 0.16^c mL
same,Foot swelling degree after inflammation,[1]; 12 h,0.96 ± 0.21^c mL
same,Foot swelling degree after inflammation,[1]; 18 h,1.32 ± 0.22^b mL
same,Foot swelling degree after inflammation,[1]; 24 h,1.08 ± 0.26^c mL

# From patent US10174015B2, “Substituted heterocyclic derivative, preparation method and use thereof” (Xiamen University, priority 2014, dated 2019)
